The text below walks through data of ChEMBL document CHEMBL6153132 (J Med Chem, 2025).

In general, IC50 refers to the concentration at which inhibition is half-maximal. In general, half-life refers to the time in which the quantity being followed falls by half.

Active and inactive are the calls of the source. No cut-off for these calls is given here.

In one data set the target is Histone deacetylase 1 (Homo sapiens, UniProt Q13547). Nature of the data set: Inhibition of human HDAC1 using ZMAL(Z-Lys(Ac)-AMC as substrate preincubated for 60 mins followed by substrate addition and measured after 90 mins by microplate reader analysis.
Data set [1] concerns Plasmodium falciparum. Briefly: microbe, parasite or virus in culture. Particulars: 3D7, 72 h.
A further data set is described as follows: cells. To be noted: Homo sapiens, Cal27CisR, 72 h.
Data set [2] addresses T1, Protein deacetylase HDAC6 (Homo sapiens, UniProt Q9UBN7).
T1 sequence (Q9UBN7 whole entry): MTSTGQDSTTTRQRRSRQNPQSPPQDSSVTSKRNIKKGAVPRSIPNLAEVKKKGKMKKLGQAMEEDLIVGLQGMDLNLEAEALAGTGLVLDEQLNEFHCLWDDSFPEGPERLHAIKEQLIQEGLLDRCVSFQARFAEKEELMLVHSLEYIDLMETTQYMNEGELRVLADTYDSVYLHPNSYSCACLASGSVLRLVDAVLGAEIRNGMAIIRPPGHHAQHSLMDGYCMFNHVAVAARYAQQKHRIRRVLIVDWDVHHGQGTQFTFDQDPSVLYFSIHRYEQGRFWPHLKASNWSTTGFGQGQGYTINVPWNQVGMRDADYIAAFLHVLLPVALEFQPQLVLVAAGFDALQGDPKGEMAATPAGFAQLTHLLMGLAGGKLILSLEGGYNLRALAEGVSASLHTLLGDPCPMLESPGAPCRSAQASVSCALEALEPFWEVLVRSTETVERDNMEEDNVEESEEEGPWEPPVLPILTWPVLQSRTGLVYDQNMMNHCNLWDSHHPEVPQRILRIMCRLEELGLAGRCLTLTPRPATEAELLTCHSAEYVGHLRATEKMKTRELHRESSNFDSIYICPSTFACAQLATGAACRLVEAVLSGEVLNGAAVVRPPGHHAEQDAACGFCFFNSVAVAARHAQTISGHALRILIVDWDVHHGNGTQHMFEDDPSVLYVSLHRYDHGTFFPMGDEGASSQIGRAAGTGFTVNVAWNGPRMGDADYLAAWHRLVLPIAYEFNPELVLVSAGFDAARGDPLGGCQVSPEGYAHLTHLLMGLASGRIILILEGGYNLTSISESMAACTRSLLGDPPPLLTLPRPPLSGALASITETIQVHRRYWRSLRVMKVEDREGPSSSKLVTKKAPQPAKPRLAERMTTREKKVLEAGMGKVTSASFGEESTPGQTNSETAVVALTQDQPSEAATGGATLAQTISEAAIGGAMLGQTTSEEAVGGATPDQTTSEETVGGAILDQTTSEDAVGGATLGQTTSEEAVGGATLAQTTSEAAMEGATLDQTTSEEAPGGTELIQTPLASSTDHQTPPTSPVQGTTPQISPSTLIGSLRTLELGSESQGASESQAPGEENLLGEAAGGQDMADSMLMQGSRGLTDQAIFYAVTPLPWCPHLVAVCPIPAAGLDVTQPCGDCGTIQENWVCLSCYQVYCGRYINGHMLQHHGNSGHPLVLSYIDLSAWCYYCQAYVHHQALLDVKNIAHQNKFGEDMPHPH
Nature of the data set: Inhibition of human HDAC6 using ZMAL(Z-Lys(Ac)-AMC as substrate preincubated for 15 mins followed by substrate addition and measured after 90 mins by microplate reader analysis.

The subject of data set [3] is Plasmodium falciparum. Briefly: microbe, parasite or virus in culture. Particulars: Dd2, 72 h.
Data set [4] relates to CAL-27. Nature of the data set: cells. To be noted: Homo sapiens, CAL-27, 72 h.
A short description of data set [5]: Metabolic stability in human liver microsome assessed as half life. It is filed as ADME, microsomes. (Microsomes from liver hold many membrane-bound enzymes, among them those of drug oxidation.)
Data set [6] in a line: Metabolic stability in human liver microsome assessed as intrinsic clearance. It is filed as ADME. Particulars: microsomes.
A short description of data set [7]: Cytotoxicity against human Cal27CisR cells assessed as cell viability incubated for 72 hrs by MTS assay. It counts as functional, cell-based. A general note: Formazan colour is commonly taken as a measure of viable cells.
Data set [8] deals with CAL-27. Briefly: Cytotoxicity against human CAL-27 cells assessed as cell viability incubated for 72 hrs by MTS assay. It is filed as functional, cell-based. Particulars: CAL-27, 72 h.
For the next data set, the system named is A2780cisR. Briefly: Cytotoxicity against human A2780 cisR cells assessed as cell viability up to 100 uM incubated for 72 hrs by MTS assay. It counts as functional, cell-based.
Another data set deals with A2780. Briefly: Cytotoxicity against human A2780 cells assessed as cell viability incubated for 72 hrs by MTS assay. It is filed as functional, cell-based. To be noted: A2780, 72 h.
The target in the next data set is Histone deacetylase 3 (Homo sapiens, UniProt O15379). Briefly: Inhibition of human HDAC3 using ZMAL(Z-Lys(Ac)-AMC as substrate preincubated for 60 mins followed by substrate addition and measured after 90 mins by microplate reader analysis.
Histone deacetylase 3, sequence (O15379 whole entry): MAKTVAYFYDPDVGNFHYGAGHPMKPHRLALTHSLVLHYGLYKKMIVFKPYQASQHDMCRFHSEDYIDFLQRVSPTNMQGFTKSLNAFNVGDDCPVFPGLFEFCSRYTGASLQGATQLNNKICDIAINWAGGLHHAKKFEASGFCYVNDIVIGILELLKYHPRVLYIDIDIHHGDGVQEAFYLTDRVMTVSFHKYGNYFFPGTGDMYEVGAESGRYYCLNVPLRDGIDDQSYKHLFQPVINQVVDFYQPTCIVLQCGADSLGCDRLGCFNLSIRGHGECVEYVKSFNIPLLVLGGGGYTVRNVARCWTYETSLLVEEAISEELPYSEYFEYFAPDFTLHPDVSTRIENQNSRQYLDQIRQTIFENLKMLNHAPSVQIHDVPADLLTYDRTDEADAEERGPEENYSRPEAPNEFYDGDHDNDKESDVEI

Histone deacetylase 1, sequence (Q13547 whole entry): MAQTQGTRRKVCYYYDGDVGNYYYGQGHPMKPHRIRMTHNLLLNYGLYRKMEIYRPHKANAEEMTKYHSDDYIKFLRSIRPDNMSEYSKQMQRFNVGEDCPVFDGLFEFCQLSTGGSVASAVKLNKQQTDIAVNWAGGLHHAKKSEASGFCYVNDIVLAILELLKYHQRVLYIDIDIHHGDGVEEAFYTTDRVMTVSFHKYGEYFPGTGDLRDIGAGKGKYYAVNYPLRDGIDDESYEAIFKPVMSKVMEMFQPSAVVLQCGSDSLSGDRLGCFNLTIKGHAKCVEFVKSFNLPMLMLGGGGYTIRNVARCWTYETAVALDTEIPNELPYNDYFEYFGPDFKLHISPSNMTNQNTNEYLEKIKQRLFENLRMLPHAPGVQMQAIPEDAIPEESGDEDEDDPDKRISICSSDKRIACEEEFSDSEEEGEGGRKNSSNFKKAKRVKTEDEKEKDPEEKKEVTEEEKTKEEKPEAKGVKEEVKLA

`CN(C)c1ccc(C(=O)N(CC(=O)NCc2ccccc2)Cc2ccc(C(=O)O)cc2)cc1`: the IC50 at Histone deacetylase 1 is 13.8 µM; in the data set with Plasmodium falciparum [1], greater than 100 µM; in the data set “cells”, greater than 100 µM; in data set [2], greater than 10 µM; in the data set on Plasmodium falciparum [3] it was greater than 100 µM; with CAL-27 [4], 74.3 µM.

Regarding `CN(C)c1ccc(C(=O)N(CC(=O)NCc2ccccc2)Cc2ccc(C(=O)Nc3ccccc3N)cc2)cc1`, the half-life in data set [5] (liver microsomes) was 17.5 min. In [6], the CLH amounted to 79.4 µL/min/mg.

Consider `Nc1cc(F)ccc1NC(=O)/C=C/c1cnn(C/C=C/c2ccccc2)c1`, for which the IC50 in data set [7] came out at 49.4 µM; in the data set on CAL-27 [8], 43.1 µM; with A2780 it was 12.9 µM. The outcome in the data set on A2780cisR was inactive.

As for `CSc1ccccc1C(=O)Nc1ccc(CN(CC(=O)NCc2ccccc2)C(=O)c2ccc(N(C)C)cc2)cc1`, the IC50 at Histone deacetylase 3 was greater than 10 µM; against Histone deacetylase 1 it was greater than 10 µM; in the data set on Plasmodium falciparum [1], greater than 100 µM; in the data set “cells”, greater than 100 µM; in data set [2], greater than 10 µM; in the data set on CAL-27 [4] it was greater than 100 µM.

As for `CN(C)c1ccc(C(=O)N(CC(=O)NCc2ccccc2)Cc2ccc(C(=O)NCCSSCCNC(=O)c3ccc(CN(CC(=O)NCc4ccccc4)C(=O)c4ccc(N(C)C)cc4)cc3)cc2)cc1`, the concentration for half-maximal inhibition (IC50) at Histone deacetylase 1 is 4.54 µM; with Plasmodium falciparum [1] it was greater than 100 µM; in the data set “cells”, greater than 100 µM; in data set [2], greater than 10 µM; with Plasmodium falciparum [3], greater than 100 µM; in the data set on CAL-27 [4], greater than 100 µM.

As for `CSc1ccccc1C(=O)NCCCCCCN(CC(=O)NCc1ccccc1)C(=O)c1ccc(N(C)C)cc1`, the IC50 against Histone deacetylase 3 was greater than 10 µM; against Histone deacetylase 1 it was greater than 10 µM; in the data set on Plasmodium falciparum [1] it was 8.97 µM; in “cells”, 65.6 µM; in data set [2], greater than 10 µM; in the data set on Plasmodium falciparum [3] it was 6.66 µM. In the data set on CAL-27 [4], this compound showed an IC50 of 68.9 µM.

In the case of `CSc1ccccc1NC(=O)CCCCCN(CC(=O)NCc1ccccc1)C(=O)c1ccc(N(C)C)cc1`, the IC50 was greater than 10 µM on Histone deacetylase 3; greater than 10 µM against Histone deacetylase 1; 56.9 µM with Plasmodium falciparum [1]; 61.3 µM in the data set “cells”; greater than 10 µM in data set [2]; 28.7 µM in the data set with Plasmodium falciparum [3]. The IC50 in the data set on CAL-27 [4] was found to be 79.4 µM.

Turning to `CCCNNC(=O)c1ccc(CN(CC(=O)NCc2ccccc2)C(=O)c2ccc(N(C)C)cc2)cc1`, the t1/2 in data set [5] (microsomes) amounted to 15.04 min. Besides, in data set [6], the CLH amounted to 92.2 µL/min/mg.

With `CNC(=O)CCCCCN(CC(=O)NCc1ccccc1)C(=O)c1ccc(N(C)C)cc1`, the IC50 at Histone deacetylase 1 was greater than 10 µM; in the data set with Plasmodium falciparum [1] it was greater than 100 µM; in “cells”, greater than 100 µM; in data set [2], greater than 10 µM; in the data set on Plasmodium falciparum [3], greater than 100 µM; in the data set with CAL-27 [4], greater than 100 µM.

Consider `CSc1ccccc1C(=O)NCCCCCN(CC(=O)NCc1ccccc1)C(=O)c1ccc(N(C)C)cc1`, for which the IC50 at Histone deacetylase 3 is greater than 10 µM; against Histone deacetylase 1 it was greater than 10 µM; in the data set “cells”, 55 µM; in data set [2], greater than 10 µM; in the data set on Plasmodium falciparum [3] it was 37.6 µM; in the data set with CAL-27 [4], 63.7 µM.

With `CN(C)c1ccc(C(=O)N(CC(=O)NCc2ccccc2)Cc2ccc(-c3nnc(C(F)F)o3)cc2)cc1`, the IC50 against Histone deacetylase 1 was greater than 10 µM; in the data set on Plasmodium falciparum [1], 18.1 µM; in “cells”, greater than 100 µM; in [2], greater than 10 µM; in the data set on Plasmodium falciparum [3], 23.7 µM; in the data set with CAL-27 [4], greater than 100 µM.

Regarding `CN(C)c1ccc(C(=O)N(CCCCCC(=O)NCCSSCCNC(=O)CCCCCN(CC(=O)NCc2ccccc2)C(=O)c2ccc(N(C)C)cc2)CC(=O)NCc2ccccc2)cc1`, the IC50 was 7.1 µM against Histone deacetylase 1; 11.7 µM in the data set on Plasmodium falciparum [1]; greater than 100 µM in the data set “cells”; greater than 10 µM in data set [2]; greater than 100 µM in the data set on Plasmodium falciparum [3]; 98.7 µM with CAL-27 [4].

As to `CN(C)c1ccc(C(=O)N(CCCCCC(=O)O)CC(=O)NCc2ccccc2)cc1`, the IC50 is greater than 10 µM on Histone deacetylase 1; greater than 100 µM with Plasmodium falciparum [1]; greater than 100 µM in the data set “cells”; greater than 10 µM in data set [2]; greater than 100 µM with Plasmodium falciparum [3]; greater than 100 µM in the data set with CAL-27 [4].

In the case of `CSc1ccccc1C(=O)NCCCCCCCN(CC(=O)NCc1ccccc1)C(=O)c1ccc(N(C)C)cc1`, the IC50 is greater than 10 µM against Histone deacetylase 3; greater than 10 µM against Histone deacetylase 1; 34.9 µM with Plasmodium falciparum [1]; greater than 100 µM in the data set “cells”; greater than 10 µM in data set [2]; 23 µM in the data set with Plasmodium falciparum [3]. In the data set with CAL-27 [4], this compound yielded an IC50 of 70.9 µM.

Take `CC(=O)SCC(=O)Nc1ccc(CN(CC(=O)NCc2ccccc2)C(=O)c2ccc(N(C)C)cc2)cc1`: the 50% inhibitory concentration (IC50) in the data set with Plasmodium falciparum [1], in “cells”, with Plasmodium falciparum [3] and with CAL-27 [4] was greater than 100 µM throughout.

Regarding `CN(C)c1ccc(C(=O)N(CC(=O)NCc2ccccc2)Cc2ccc(-c3nnc(C(F)(F)F)o3)cc2)cc1`, the IC50 against Histone deacetylase 1 was greater than 10 µM; with Plasmodium falciparum [1], 34.2 µM; in the data set “cells”, greater than 100 µM; in data set [2] it was greater than 10 µM; in the data set on Plasmodium falciparum [3], 36.8 µM; in the data set on CAL-27 [4], greater than 100 µM.

Regarding `CN(C)c1ccc(C(=O)N(CCCCCCNC(=O)c2ccccc2O)CC(=O)NCc2ccccc2)cc1`, the 50% inhibitory concentration (IC50) at Histone deacetylase 1 was greater than 10 µM; in the data set “cells”, greater than 100 µM; in [2] it was greater than 10 µM.

For the compound `CC(=O)SCC(=O)NCCCCCCN(CC(=O)NCc1ccccc1)C(=O)c1ccc(N(C)C)cc1`, the IC50 in the data set on Plasmodium falciparum [1] was greater than 100 µM; in “cells”, 28.8 µM; in the data set on Plasmodium falciparum [3] it was 85.1 µM; in the data set with CAL-27 [4] it was 33.4 µM.
